Assay results published in ChEMBL document CHEMBL3352509, “Cyclic tertiary sulfamates: selective inhibition of the tumor-associated carbonic anhydrases IX and XII by N- and O-substituted acesulfame derivatives” (Eur J Med Chem, 2014).

Experiments:
[1] = molecular target: Carbonic anhydrase 1 (Homo sapiens, UniProt P00915); experiment: Inhibition of human recombinant carbonic anhydrase 1 by stopped flow CO2 hydration method
[2] = molecular target: Carbonic anhydrase 2 (Homo sapiens, UniProt P00918); experiment: Inhibition of human recombinant carbonic anhydrase 2 by stopped flow CO2 hydration method
[3] = molecular target: Carbonic anhydrase 12 (Homo sapiens, UniProt O43570); experiment: Inhibition of human recombinant carbonic anhydrase 12 by stopped flow CO2 hydration method
Sequence of Carbonic anhydrase 12 (O43570 whole entry): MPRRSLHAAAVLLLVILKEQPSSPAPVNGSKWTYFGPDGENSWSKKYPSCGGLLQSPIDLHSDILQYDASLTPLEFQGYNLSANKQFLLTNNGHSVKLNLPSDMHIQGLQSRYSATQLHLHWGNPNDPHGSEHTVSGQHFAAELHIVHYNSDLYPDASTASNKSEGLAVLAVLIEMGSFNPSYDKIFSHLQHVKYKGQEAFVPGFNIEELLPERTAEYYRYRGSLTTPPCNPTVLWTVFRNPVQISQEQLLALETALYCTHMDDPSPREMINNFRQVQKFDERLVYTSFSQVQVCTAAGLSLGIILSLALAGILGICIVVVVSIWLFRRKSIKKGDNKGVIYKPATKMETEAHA

[4] = molecular target: Carbonic anhydrase 9 (Homo sapiens, UniProt Q16790); experiment: Inhibition of human recombinant carbonic anhydrase 9 by stopped flow CO2 hydration method

Sequence of Carbonic anhydrase 1 (P00915 whole entry): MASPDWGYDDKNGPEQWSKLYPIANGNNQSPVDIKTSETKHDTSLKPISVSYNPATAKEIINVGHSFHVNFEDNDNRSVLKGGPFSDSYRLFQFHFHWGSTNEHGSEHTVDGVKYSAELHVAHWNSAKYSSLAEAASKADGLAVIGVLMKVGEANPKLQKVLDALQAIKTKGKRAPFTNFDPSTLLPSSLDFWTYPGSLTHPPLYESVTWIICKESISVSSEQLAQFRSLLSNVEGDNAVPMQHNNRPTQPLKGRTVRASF

Ki [1] [µM]	Ki [2] [µM]	Ki [3] [µM]	Ki [4] [µM]	SMILES
> 20	> 20	0.103	0.114	C=CCN1C(=O)C=C(C)OS1(=O)=O
> 20	> 20	–	0.199	C=CCOC1=NS(=O)(=O)OC(C)=C1
> 20	> 20	–	–	C#CCOC1=NS(=O)(=O)OC(C)=C1
2.9	> 20	–	0.047	CC1=CC(OCC#N)=NS(=O)(=O)O1
15.6	2.18	–	> 20	CC(=O)CN1C(=O)C=C(C)OS1(=O)=O
2.49	> 20	–	> 20	CC(=O)COC1=NS(=O)(=O)OC(C)=C1
> 20	> 20	–	0.043	CCOC(=O)COC1=NS(=O)(=O)OC(C)=C1
> 20	> 20	–	0.041	CC1=CC(=O)N(Cc2ccccc2[N+](=O)[O-])S(=O)(=O)O1
> 20	> 20	–	0.041	CC1=CC(OCc2ccccc2[N+](=O)[O-])=NS(=O)(=O)O1
> 20	> 20	–	0.267	CC1=CC(=O)N(Cc2cccc([N+](=O)[O-])c2)S(=O)(=O)O1
> 20	> 20	–	> 20	CC1=CC(OCc2cccc([N+](=O)[O-])c2)=NS(=O)(=O)O1
> 20	> 20	–	0.249	CC1=CC(OCc2ccccc2Br)=NS(=O)(=O)O1
> 20	> 20	–	0.284	CC1=CC(=O)N(Cc2cccc(Br)c2)S(=O)(=O)O1
> 20	> 20	–	0.285	CC1=CC(=O)N(Cc2ccccc2F)S(=O)(=O)O1
> 20	> 20	–	0.275	CC1=CC(=O)N(Cc2cccc(F)c2)S(=O)(=O)O1
> 20	> 20	–	> 20	CC1=CC(OCc2cccc(F)c2)=NS(=O)(=O)O1
> 20	> 20	–	> 20	CC1=CC(=O)N(Cc2c(F)cccc2F)S(=O)(=O)O1
> 20	> 20	–	0.309	CC1=CC(=O)N(Cc2ccc(C#N)cc2)S(=O)(=O)O1
> 20	> 20	–	0.0057	CC1=CC(=O)N(CC(=O)c2ccccc2)S(=O)(=O)O1
1.3	0.0255	–	0.0168	CC1=CC(=O)N(CC(=O)c2cccc([N+](=O)[O-])c2)S(=O)(=O)O1

SMILES	Ki [1] [µM]	Ki [2] [µM]	Ki [3] [µM]	Ki [4] [µM]
CCOC(=O)CN1C(=O)C=C(C)OS1(=O)=O	> 20	> 20	–	0.047
CC1=CC(OCC(=O)c2ccccc2)=NS(=O)(=O)O1	> 20	> 20	–	0.0153
